The results in this text go back to publication PMC3723861, “Nitrile hydratase of Rhodococcus erythropolis: characterization of the enzyme and the use of whole cells for biotransformation of nitriles” (3 Biotech, 2012).

For the test, the system named is T1, nitrile hydratase.
T1 construct: gene nthA; native intracellular enzyme purified from R. erythropolis MTCC 1526 grown with CoCl2; subunits about 29 kDa (alpha) and 30 kDa (beta); native 65 kDa
The test can be described thus: nicotinamide formation by HPLC, Lineweaver-Burk plot. It counts as biochemical, Rhodococcus erythropolis. As to conditions: pH 7.0, 20 mM phosphate buffer, 25 °C (Fig. 6 legend says 20 °C); 0.2-2.0 mM substrate.

Molecules are shown by their SMILES.

Broadly, the Km is the concentration of substrate that gives half-maximal velocity. In the case of `N#Cc1cccnc1` [3-cyanopyridine], the Michaelis constant (Km) worked out at 624 µM.
